Test results: patent US7030236B2, “Antisense oligonucleotides tarageting folate receptor alpha, and the use thereof” (priority 2001, dated 2006)
Residue numbers refer to the chain shown, from its start.

Legend:
Type in all cases: cell-based, human
αhFR mRNA = test: Northern analysis of αhFR mRNA in KB cells; conditions: oligonucleotide treatment over night
Text: Expression of αhFR is known to be elevated in cancer. In particular, increased αhFR expression is found in 90% of human epithelial ovarian malignancies and is associated with a poor disease prognosis. It is possible that over expression of αhFR confers a growth survival advantage in ovarian cancer cells, since folates are involved in numerous cellular processes, including DNA and RNA synthesis.
Northern Analysis. KB cells were maintained over night in growth media containing sense or antisense unmodified DNA oligonucleotides at the indicated concentrations. Total RNA was isolated (Promega, Madison, Wis.) and samples containing 20 μg of total cellular RNA were resolved on a 1% agarose/0.66M formaldehyde/0.023 3-(N-morpholino) propansulfonic acid gel. The RNA's were transferred to a nitrocellulose membrane (Schleicher and Schuell, Portran, Keene, N.H.) and then hybridized to a random ^32P-labeled αhFR cDNA probe as described previously.

MDA-MB-231 = test: XTT cell survival after Tf-liposome-mediated oligonucleotide transfection, MDA-MB-231; conditions: MDA-MB-231, end-modified phosphorothioated oligo, 6 hrs transfection, XTT at 48 hrs
Method: (§1) FIGS. 10A–10B: FIGS. 10A and 10B depict the effect of various concentrations of αhFR AS-6 oligonucleotide (A) and S-6 oligonucleotide (B) on survival of cultured human breast cancer cells. End-modified phosphorothioated oligonucleotides were transfected into 2×10^4 cells at the indicated concentrations for 6 hrs using a Tf-liposome-mediated delivery complex. Cell survival was assessed 48 hrs after transfection by XTT assay.
(§2) To determine the effect of αhFR antisense oligonucleotide, on the survival of cultured breast cancer cells, we transfected AS6 oligonucleotide and S6 oligonucleotide at various concentrations via the Tf-liposome-mediated gene delivery system.

KB cells [1] = test: KB cell viability after oligonucleotide treatment, total protein content by Bradford assay; conditions: compared to S-6 control
Method: The effect of AS-6 on the viability of cultured KB cells was evaluated (FIG. 3). […] The decrease in cell viability upon AS-6 treatment correlates well with the decrease in newly synthesized αhFR expression, as determined in FIG. 2B.
Cell Viability Experiments. Stable transfectants of pRc/CMV αhFR-S or pRc/CMV ahFR-AS constructs were achieved by the calcium phosphate method using the Stratagene Eukaryotic Transfection kit (La Jolla, Calif.) and selected in 500 μg/ml G418. Phosphorothioated-modified αhFR sense (S-6) and antisense (AS-6) DNA oligonucleotides were transfected into 6×10^4 KB cells by incubating oligonucleotides in 1 ml of serum-free media for 6 hrs. Transfections were terminated by the addition of 1 ml of serum-containing low-folate media. Total protein content was assessed 36 hours later by Bradford assay (Biorad, Hercules, Calif.).

MDA-MB-435 cells = test: Chemosensitization to doxorubicin, XTT assay; conditions: 500 nM oligo, doxorubicin 24 hrs after transfection, XTT after 72 hrs
Method: FIG. 11: FIG. 11 depicts chemosensitization of MDA-MB-435 breast cancer cells after combination treatment with αhFR AS6 oligonucleotide and doxorubicin. MDA-MB-435 cells were plated at 2×10^4 cells/well and transfected with 500 nM of αhFR AS6 or S6 end-modified phosphorothioated oligonucleotide. After 24 hrs, cells were incubated with media containing doxorubicin at the indicated concentrations. Cell survival was determined by XTT assay after 72 hrs.
To determine whether or not αhFR antisense oligonucleotide sensitizes breast cancer cells to chemotherapy, the following experiment was carried out. 500 nM of AS6 oligonucleotide or S6 oligonucleotide was transfected into MDA-MB-435 cells and treated with varying concentrations of doxorubicin, twenty-four hours after transfection. Cell survival was determined after 72 hrs by XTT assay and the degree of sensitization was calculating by determining the ratio of IC50 values of the combined treatment relative to that of the S6 oligonucleotide and untreated controls. In FIG. 11, chemosensitization of MDA-MD-435 cells by AS6 oligonucleotide was about 5 fold (IC50 S6/IC50 AS6=5) relative to the sense control and about 10 fold (IC50 UT/IC50 AS6=10) relative to the untreated control.

MDA-MB-435 = test: XTT cell survival after Tf-liposome-mediated oligonucleotide transfection, MDA-MB-435; conditions: MDA-MB-435, end-modified phosphorothioated oligo, 6 hrs transfection, XTT at 48 hrs
Method: as §1, §2

T47D = test: XTT cell survival after Tf-liposome-mediated oligonucleotide transfection, T47D
Method: as §1, §2

KB cells [2] = test: KB cell viability after cytofectin transfection of ribozymes, Cell Counting Kit-8 colorimetric assay
Method: The viability of KB cells transfected with wild type or control mutant and sense ribozymes was assessed by colormetric assay. […] (FIG. 6A). […] Approximately 75% of the initial transfected ribozyme amounts disappeared after 1 hour. The quick half-life of ribozyme integrity may explain the unexpected lowered effect of αhFR ribozymes versus antisense oligonucleotides on KB cell survival.
In vitro synthesized wild type, mutant or sense-oriented ribozymes were transfected into 6×10^4 KB cells with cytofectin (Glen Research, Rockville, Md.), according to manufacturers instruction. Transfections were terminated by replacing media with 1 ml of serum-containing low-folate media. Cell viability was quantitated after 36 hours by the Cell Counting Kit-8 (Dojindo, Gaithersburg, Md.). For ribozyme decay analysis, in vitro synthesized ribozymes were radiolabeled with [α-^32P]-rCTP and rGTP using the riboprobe kit (Promega, Madison, Wis.). Radiolabeld ribozymes were transfected by the cytofectin method as described above. Total RNA was extracted at the indicated time points using the RNeasy mini kit (Quiagen, Valencia, Calif.), fractionated on a 6% sequencing gel and visualized by autoradiography. Amounts of intact internalized ^32P-labeled ribozyme were determined using the NIH image software.

AS-1: antisense 21-mer DNA TGTTGTCATCCGCTGAGCCAT, αhFR open reading frame 21–1, SEQ ID NO. 2 (antisense TGTTGTCATCCGCTGAGCCAT; unmodified DNA)
αhFR mRNA by Northern analysis (αhFR mRNA): remained unaffected

AS-2: antisense 21-mer DNA AGGAGGTCAGCTGAGCAGCCA, αhFR open reading frame 780–760, SEQ ID NO. 3 (antisense AGGAGGTCAGCTGAGCAGCCA; unmodified DNA)
αhFR mRNA by Northern analysis (αhFR mRNA): remained unaffected

AS-6: antisense 21-mer DNA GCTCTTGCAGGTGTAGGAGGT, αhFR ORF 462–442, SEQ ID NO. 4; unmodified or phosphorothioated (antisense GCTCTTGCAGGTGTAGGAGGT; DNA, backbone and methylation of C not given here; phosphorothioate modified, described as end-modified)
IC50 (MDA-MB-231): 0.6 µM | decrease in overall protein content (KB cells [1]; 10 μM phosphorothioate-modified oligo): 20% | decrease in overall protein content (KB cells [1]; 50 μM phosphorothioate-modified oligo): 60% | αhFR mRNA by Northern analysis (αhFR mRNA): remained unaffected | chemosensitization to doxorubicin, IC50 S6/IC50 AS6 (MDA-MB-435 cells; relative to sense control): about 5 fold | chemosensitization to doxorubicin, IC50 UT/IC50 AS6 (MDA-MB-435 cells; relative to untreated control): about 10 fold | IC50 (MDA-MB-435): 0.416 µM | IC50 (T47D; T47D, end-modified phosphorothioated oligo, 6 hrs transfection, XTT at 48 hrs): 0.633 µM

S6: sense control 21-mer ACCTCCTACACCTGCAAGAGC, 442–462 (sense ACCTCCTACACCTGCAAGAGC; DNA, backbone and methylation of C not given here; S-6 used both unmodified and phosphorothioate-modified, form not tied to measurement, further chemistry not fully specified) [reference compound]
effect on survival of model breast cancer cell lines (T47D; stated for the breast cancer cell lines together (T47D, MDA-MB-231, MDA-MB-435), versus AS6): significantly less effect

B1: Rz 187/210 WT: wild type hammerhead ribozyme targeted to 5′ region of αhFR open reading frame; encoding DNA in Table II (nucleic acid)
DNA 1: CCCGTCGACAATGCCTGCTGTTTCGTCCTCACGGACTCATCAGCTACCAACACAAGCTTCCC
DNA 2: GGGCAGCTGTTACGGACGACAAAGCAGGAGTGCCTGAGTAGTCGATGGTTGTGTTCGAAGGG
modifications: target site or template, no part of the molecule; chemistry not given here; one strand is listed 3' to 5'
decrease in cell survival (KB cells [2]; KB cells, compared to control mutant and sense ribozymes): approximately 60%

B2: Rz 187/210 MUT: mutant control ribozyme, G in the catalytic structure changed to A (nucleic acid)
DNA 1: B1 DNA 1 with C36T
DNA 2: B1 DNA 2 with G36A
modifications: target site or template, no part of the molecule; chemistry not given here; one strand is listed 3' to 5'
notes: mutant control ribozyme, G in the catalytic structure changed to A
effect on cell survival (KB cells [2]; KB cells transfected with ribozyme): little, if any effect
